In test [1] the test system is MT4. The test can be described thus: Effective concentration of the compound to inhibit HIV-1 replication in HIV-infected MT-4 cells. It is filed as functional, cell-based. The note with it: Homo sapiens.
The test system of test [2] is MT4. In words: Effective concentration of the compound to inhibit HIV-1 mutant K103N replication in HIV-infected MT-4 cells. It counts as functional, cell-based, Homo sapiens.
In test [3] the test system is MT4. The test can be described thus: Effective concentration of the compound to inhibit HIV-1 mutant Y181C replication in HIV-infected MT-4 cells. It counts as functional, cell-based, Homo sapiens.
In test [4] the test system is MT4. The test can be described thus: Effective concentration of the compound to inhibit HIV-1 mutant Y188L replication in HIV-infected MT-4 cells. It is filed as functional, cell-based, Homo sapiens.
Test [5] relates to MT4. The test can be described thus: Effective concentration of the compound to inhibit […] replication in HIV-infected MT-4 cells. It is filed as functional, cell-based. The settings on record: Homo sapiens.
Test [6] deals with MT4. The test can be described thus: Effective concentration of the compound to inhibit HIV-1 mutant L100I replication in HIV-infected MT-4 cells. It counts as functional, cell-based, Homo sapiens.
The subject of test [7] is MT4. The test can be described thus: Effective concentration of the compound to inhibit HIV-1 mutant L100I+K103N replication in HIV-infected MT-4 cells. It is filed as functional, cell-based, Homo sapiens.
For test [8], the system named is MT4. The test can be described thus: Effective concentration of the compound to inhibit HIV-1 mutant K103N+Y181C replication in HIV-infected MT-4 cells. It counts as functional, cell-based, Homo sapiens.

The structures appear in SMILES notation. Bounds are passed on as bounds.

One may read the EC50 as the concentration at which the effect is half-maximal. Turning to `NC(=O)C(NC(=O)Nc1ccccc1[N+](=O)[O-])c1c(Cl)cccc1Cl` (stereo unspecified), the EC50 with MT4 [1] is above 50000 nM.

With `CC(C)=CCN1Cc2c(Cl)ccc3[nH]c(=S)n(c23)C[C@@H]1C` [TIVIRAPINE], the midpoint of the response in the test on MT4 [1], the EC50, lay at 4.6 nM.

As to `COc1ccccc1NC(C(N)=O)c1c(Cl)cccc1Cl` (stereo unspecified), the response in the test on MT4 [1] was half-maximal at 610 nM (EC50).

For the compound `N#Cc1ccc(Nc2nc(N)cc(Cc3c(Cl)cccc3Cl)n2)cc1`, the half-maximal effective concentration (EC50) in the test on MT4 [2] amounted to 12 nM; in the test on MT4 [3], 180 nM; in the test with MT4 [4], 71 nM; in the test on MT4 [5], 1 nM; in the test with MT4 [6], 300 nM.

For the compound `Cc1cc(C#N)cc(C)c1Oc1nc(Nc2ccc(C#N)cc2)nc(N)c1Br` [ETRAVIRINE], the EC50 with MT4 [2] turned out to be 1 nM; in the test on MT4 [7] it was 19 nM; in the test with MT4 [3] it was 7 nM; with MT4 [8] it was 4 nM; with MT4 [4] it was 5 nM; in the test on MT4 [5], 1 nM. Besides, in the test on MT4 [6], a half-maximal effect (EC50) was put at 3 nM.

As for `Cc1ccnc2c1NC(=O)c1cccnc1N2C1CC1` [NEVIRAPINE], the EC50 was 6310 nM in the test with MT4 [2]; 10000 nM in the test on MT4 [3]; above 10000 nM in the test with MT4 [8]; above 100000 nM in the test on MT4 [4]; 32 nM in the test on MT4 [5]; 320 nM with MT4 [6].

As to `Cc1cc(C#N)cc(C)c1Oc1nc(Nc2ccc(C#N)cc2)ncc1Br`, the half-maximal effective concentration (EC50) with MT4 [2] stood at 1 nM; with MT4 [7], 49 nM; with MT4 [3] it was 22 nM; in the test with MT4 [8] it was 25 nM; with MT4 [4], 6 nM; with MT4 [5], 1 nM. The same compound returned an EC50 in the test with MT4 [6] of 7 nM.

`NC(=O)C(/N=C(\S)Nc1ccc(Cl)cc1)c1c(Cl)cccc1Cl` (stereo unspecified) showed a half-maximal effective concentration (EC50) with MT4 [1] of 160 nM.

As for `C=CCN1Cc2cccc3[nH]c(=O)n(c23)CC1C` (stereo unspecified), the EC50 in the test with MT4 [1] is 62000 nM.

`N#Cc1ccc(Nc2nc(Cc3c(Cl)cccc3Cl)ns2)cc1`: in the test on MT4 [1], the EC50 was above 1000 nM.

Take `CC(=O)c1ccc(C)cc1NC(C(N)=O)c1c(Cl)cccc1Cl` (stereo unspecified) [LOVIRIDE]: the EC50 in the test with MT4 [2] is 1300 nM; with MT4 [3], 16000 nM; in the test with MT4 [4], 50000 nM; in the test on MT4 [5] it was 13 nM; with MT4 [6], 50 nM.

On to `NC(=O)C(/N=C(\S)Nc1ccccc1Cl)c1c(Cl)cccc1Cl` (stereo unspecified), for which, in the test with MT4 [1], the EC50 was above 50000 nM.

For `N#Cc1ccc(NC(=S)NC(=N)Cc2c(Cl)cccc2Cl)cc1`, the half-maximal effective concentration (EC50) in the test with MT4 [2] was determined as 590 nM; with MT4 [3] it was 510 nM; with MT4 [4] it was 320 nM; in the test on MT4 [5], 3 nM; in the test on MT4 [6] it was 510 nM.

`Cc1cc(C)c(Oc2ccnc(Nc3ccc(C#N)cc3)n2)c(C)c1`: the EC50 stood at 3 nM with MT4 [2]; 8200 nM in the test on MT4 [7]; 38 nM in the test on MT4 [3]; 1100 nM in the test with MT4 [8]; 55 nM with MT4 [4]; 3 nM with MT4 [5]. A half-maximal effect with MT4 [6] (EC50) was put at 22 nM.

Regarding `N#Cc1ccc(Nc2cc(Cc3c(Cl)cccc3Cl)nc(N)n2)cc1`, the EC50 was above 10000 nM in the test on MT4 [2]; above 10000 nM with MT4 [3]; above 10000 nM with MT4 [4]; 10 nM in the test on MT4 [5]; above 10000 nM in the test on MT4 [6].

With `Cc1cc(C)c(Nc2nc(Nc3ccc(C#N)cc3)ncc2Br)c(C)c1`, the EC50 came out at 7 nM with MT4 [2]; 350 nM in the test on MT4 [7]; 36 nM in the test on MT4 [3]; 280 nM in the test with MT4 [8]; 27 nM in the test on MT4 [4]; 6 nM with MT4 [5]. In the test with MT4 [6], this compound displayed an EC50 of 11 nM.

`NC(=O)C(Nc1ccccc1[N+](=O)[O-])c1c(Cl)cccc1Cl` (stereo unspecified): in the test with MT4 [1], the EC50 was found to be 100 nM.

`Cc1cc(C#N)cc(C)c1Nc1ccnc(Nc2ccc(C#N)cc2)n1`: the EC50 in the test on MT4 [2] is 2 nM; with MT4 [7], 1100 nM; in the test with MT4 [3], 7 nM; in the test with MT4 [8], 37 nM; with MT4 [4], 8 nM; with MT4 [5], 0.4 nM. The same compound showed a concentration giving a half-maximal response (EC50) in the test with MT4 [6] of 34 nM.

In the case of `NC(=O)C(NC(=O)c1ccccc1[N+](=O)[O-])c1c(Cl)cccc1Cl` (stereo unspecified), in the test with MT4 [1], the EC50 is above 50000 nM.

Compound `NC(=O)C(Nc1ccc(Cl)cc1)c1c(Cl)cccc1Cl` (stereo unspecified) yielded a 50% effective concentration (EC50) in the test with MT4 [1] above 50000 nM.

Regarding `O=C1Nc2ccc(Cl)cc2[C@@](C#CC2CC2)(C(F)(F)F)O1` [EFAVIRENZ], the EC50 with MT4 [2] is 40 nM; in the test with MT4 [7], above 10000 nM; with MT4 [3], 2 nM; in the test on MT4 [8] it was 40 nM; in the test with MT4 [4] it was 160 nM; in the test on MT4 [5] it was 1 nM. In addition, in the test on MT4 [6], the half-maximal effective concentration (EC50) was 40 nM.

`NC(=O)C(Nc1ccccc1Cl)c1c(Cl)cccc1Cl` (stereo unspecified) came in with an EC50 in the test on MT4 [1] of 400 nM.

`N#Cc1ccc(Nc2nc(N)nc(Cc3c(Cl)cccc3Cl)n2)cc1`: the half-maximal effective concentration (EC50) with MT4 [2] was found to be 40 nM; in the test on MT4 [3] it was 200 nM; in the test on MT4 [4], 320 nM; in the test with MT4 [5], 6 nM; in the test on MT4 [6], 400 nM.

For `Cc1cc(C#N)cc(C)c1Oc1ccnc(Nc2ccc(C#N)cc2)n1`, the EC50 is 3 nM in the test on MT4 [2]; 800 nM in the test with MT4 [7]; 37 nM in the test with MT4 [3]; 94 nM in the test on MT4 [8]; 19 nM with MT4 [4]; 1 nM with MT4 [5]. In the test with MT4 [6], the EC50 came out at 73 nM.

As for `Cc1cc(C)c(Nc2ccnc(Nc3ccc(C#N)cc3)n2)c(C)c1` [DAPIVIRINE], the half-maximal effective concentration (EC50) was 4 nM in the test with MT4 [2]; above 10000 nM in the test on MT4 [7]; 8 nM with MT4 [3]; 44 nM in the test with MT4 [8]; 48 nM with MT4 [4]; 1 nM in the test on MT4 [5]. Moreover, in the test on MT4 [6], the response was half-maximal at 18 nM (EC50).

In the case of `Cc1cc(C)c(Oc2ncnc(Nc3ccc(C#N)cc3)n2)c(C)c1`, the 50% effective concentration (EC50) worked out at 3 nM in the test with MT4 [2]; 2500 nM with MT4 [7]; 20 nM in the test with MT4 [3]; 130 nM with MT4 [8]; 63 nM in the test on MT4 [4]; 0.6 nM in the test with MT4 [5]. In addition, in the test with MT4 [6], a half-maximal response (EC50) required 20 nM.

For the compound `CC(C)=CCN1Cc2cc(Cl)cc3[nH]c(=S)n(c23)C[C@@H]1C`, the EC50 in the test on MT4 [1] was found to be 33 nM.

For the compound `Cc1cc(C#N)cc(C)c1Nc1ncnc(Nc2ccc(C#N)cc2)n1`, the EC50 with MT4 [2] is 8 nM; in the test on MT4 [7] it was above 10000 nM; in the test with MT4 [3], 50 nM; in the test with MT4 [4], 50 nM; with MT4 [5], 1 nM; with MT4 [6] it was 250 nM.

On to `CC(C)Nc1cccnc1N1CCN(C(=O)c2cc3cc(NS(C)(=O)=O)ccc3[nH]2)CC1` [DELAVIRDINE], for which the EC50 was 2500 nM in the test on MT4 [2]; 2000 nM in the test with MT4 [3]; above 10000 nM in the test on MT4 [8]; 1300 nM in the test with MT4 [4]; 63 nM with MT4 [5]; 2500 nM in the test on MT4 [6].

Regarding `Cc1cc(C#N)cc(C)c1Nc1nc(Nc2ccc(C#N)cc2)ncc1Br`, the concentration giving a half-maximal response (EC50) with MT4 [2] stood at 0.4 nM; in the test on MT4 [7], 37 nM; with MT4 [3] it was 10 nM; with MT4 [8], 32 nM; in the test on MT4 [4], 3 nM; in the test on MT4 [5], 0.4 nM. The same compound returned a half-maximal effective concentration (EC50) in the test on MT4 [6] of 7 nM.

The compound `NC(=O)C(NCc1ccccc1[N+](=O)[O-])c1c(Cl)cccc1Cl` (stereo unspecified) showed an EC50 in the test with MT4 [1] above 50000 nM.

As to `N#Cc1ccc(Nc2cc(N)nc(Cc3c(Cl)cccc3Cl)n2)cc1`, the concentration giving a half-maximal response (EC50) in the test on MT4 [2] is above 10000 nM; in the test with MT4 [3] it was above 10000 nM; with MT4 [4], above 10000 nM; in the test on MT4 [5] it was 450 nM; in the test on MT4 [6] it was above 10000 nM.

For the origin of these results see ChEMBL document CHEMBL1142713, “From 4,5,6,7-tetrahydro-5-methylimidazo[4,5,1-jk](1,4)benzodiazepin-2(1H)-one (TIBO) to etravirine (TMC125): fifteen years of research on non-nucleoside inhibitors of HIV-1 reverse transcriptase” (J Med Chem, 2005).
